# Key:
# [1] = tested on: T2R02 of Latimeria chalumnae; set-up: method as in PMID 33355666; settings: cited from earlier work
# mouse Tas2r105 = target: T1, mouse Tas2r105 (Mus musculus, UniProt Q9JKT4); assay: Calcium imaging assay (FLIPR), HEK293T-Gα16gust44 cells transfected with mouse Tas2r105; format: cell-based
# T1 construct: expressed in transfected cells; host or cells: HEK293T-Gα16gust44
# T1 sequence (Q9JKT4 1-300): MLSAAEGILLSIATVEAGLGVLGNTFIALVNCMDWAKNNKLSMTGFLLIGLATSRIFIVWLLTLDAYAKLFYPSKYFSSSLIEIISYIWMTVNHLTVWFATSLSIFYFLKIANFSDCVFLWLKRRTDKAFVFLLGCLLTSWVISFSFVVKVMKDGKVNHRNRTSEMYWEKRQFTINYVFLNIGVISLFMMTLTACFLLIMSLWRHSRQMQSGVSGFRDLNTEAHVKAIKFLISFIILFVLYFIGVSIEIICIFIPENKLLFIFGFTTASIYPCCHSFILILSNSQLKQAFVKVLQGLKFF
# Experimental: This set of bile acids was chosen because of their commercial availability in high purities, their diversity within the class of bile acids and their previous detection and quantitation in human blood. Stock solutions were prepared in DMSO.
# As basal growth medium for the HEK293T-Gα16gust44 cell line[17],[59] served Dulbecco’s modified eagle medium (DMEM) (Thermo Fisher Scientific, Darmstadt, Germany) supplemented with 10 % fetal bovine serum (Sigma-Aldrich, Steinheim, Germany), 2 mM L-glutamine (Sigma-Aldrich, Steinheim, Germany), 100 units/ml penicillin (Sigma Aldrich, Steinheim, Germany) and 100 µg/ml streptomycin (Sigma Aldrich, Steinheim, Germany). Growth conditions were 37 °C, 5 % CO2 and saturated air-humidity[60].
# HEK293T-Gα16gust44 cells were seeded on poly-D-lysine (10 µg/ml) coated 96-well plates to reach a confluence of 40-60 % the next day. For transient transfection 150 ng of plasmid DNA containing the receptor of interest and 0.3 µl lipofectamine 2000 (Thermo Fisher Scientific, Darmstadt, Germany) per well were used and transfection took place according to the manual of lipofectamine 2000. […] The empty vector DNA (mock) was transfected as negative control[14],[41].
# Cells were loaded using the calcium-sensitive fluorescent dye Fluo-4-AM (Abcam, Cambridge, Great Britain) in the presence of 2.5 mM probenecid (Sigma-Aldrich, Steinheim, Germany) the day after transfection[13],[41]. 1 h after loading, cells were washed with C1 buffer using a BioTek Cell Washer, incubated in the dark for half an hour and washed again. For automated agonist application and measurement of fluorescence changes, a FLIPR^TETRA device (Molecular Devices, San José, United States) was used. Viability of cells was tested by application of 100 nM Somatostatin 14 (Bachem, Bubendorf, Switzerland)[42].
# Measured data were negative control corrected by subtracting the signal of the mock-transfected cells and exported to Microsoft Excel using the FLIPR software ScreenWorks 4.2. In Microsoft Excel software, standardization of maximum fluorescence intensities to the basal fluorescence and normalization to the buffer-only control was done to calculate the relative fluorescence changes (ΔF/F).
# Initial screening experiments performed in duplicate wells were confirmed by at least one replication and representative traces were selected for display. All dose-response relationships were determined by three independent experiments (biological replicates) performed in duplicates (technical replicates). Threshold concentrations, defined as lowest substance concentrations leading to statistically significant elevated fluorescence changes in receptor-transfected cells compared with empty vector-transfected cells, were determined using SigmaPlot with Student’s t-test to evaluate statistical significance (p < 0.01).
smiles,measurement,setting,value
"C[C@H](CCC(=O)O)[C@H]1CC[C@H]2[C@@H]3[C@H](O)C[C@@H]4C[C@H](O)CC[C@]4(C)[C@H]3CC[C@]12C [Chenodeoxycholic Acid, chenodeoxycholic acid]",Activation of T2R02,[1],activate
"C[C@H](CCC(=O)O)[C@H]1CC[C@H]2[C@@H]3CC[C@@H]4C[C@H](O)CC[C@]4(C)[C@H]3CC[C@]12C [Lithocholic Acid, lithocholic acid]",RLU,mouse Tas2r105; Time 0 s,0 RLU
same,RLU,mouse Tas2r105; Time 2 s,-19.9183 RLU
same,RLU,mouse Tas2r105; Time 4 s,19.2865 RLU
same,RLU,mouse Tas2r105; Time 6 s,-6.64 RLU
same,RLU,mouse Tas2r105; Time 8 s,9.805 RLU
same,RLU,mouse Tas2r105; Time 12 s,17.7969 RLU
same,RLU,mouse Tas2r105; Time 14 s,8.271 RLU
same,RLU,mouse Tas2r105; Time 16 s,-2.182 RLU
same,RLU,mouse Tas2r105; Time 18 s,5.571 RLU
same,RLU,mouse Tas2r105; Time 18.781 s,8.9 RLU
same,RLU,mouse Tas2r105; Time 20.781 s,-20.4639 RLU
same,RLU,mouse Tas2r105; Time 22.781 s,-20.313 RLU
same,RLU,mouse Tas2r105; Time 24.781 s,13.8358 RLU
same,RLU,mouse Tas2r105; Time 26.781 s,13.4767 RLU
same,RLU,mouse Tas2r105; Time 28.781 s,5.266 RLU
same,RLU,mouse Tas2r105; Time 30.781 s,-9.837 RLU
same,RLU,mouse Tas2r105; Time 32.781 s,8.574 RLU
same,RLU,mouse Tas2r105; Time 34.781 s,27.1912 RLU
same,RLU,mouse Tas2r105; Time 36.781 s,18.0239 RLU
same,RLU,mouse Tas2r105; Time 38.781 s,6.659 RLU
same,RLU,mouse Tas2r105; Time 40.781 s,53.7499 RLU
same,RLU,mouse Tas2r105; Time 42.781 s,49.1517 RLU
same,RLU,mouse Tas2r105; Time 44.781 s,47.3635 RLU
same,RLU,mouse Tas2r105; Time 46.781 s,50.4831 RLU
same,RLU,mouse Tas2r105; Time 48.781 s,74.4289 RLU
same,RLU,mouse Tas2r105; Time 50.781 s,93.6056 RLU
same,RLU,mouse Tas2r105; Time 52.781 s,63.4969 RLU
same,RLU,mouse Tas2r105; Time 54.781 s,82.9174 RLU
same,RLU,mouse Tas2r105; Time 56.781 s,91.8724 RLU
same,RLU,mouse Tas2r105; Time 58.781 s,82.9428 RLU
same,RLU,mouse Tas2r105; Time 60.781 s,110.605 RLU
same,RLU,mouse Tas2r105; Time 62.781 s,104.538 RLU
same,RLU,mouse Tas2r105; Time 64.781 s,112.529 RLU
same,RLU,mouse Tas2r105; Time 66.781 s,137.104 RLU
same,RLU,mouse Tas2r105; Time 68.781 s,132.36 RLU
same,RLU,mouse Tas2r105; Time 70.781 s,132.904 RLU
same,RLU,mouse Tas2r105; Time 72.781 s,132.041 RLU
same,RLU,mouse Tas2r105; Time 74.781 s,144.653 RLU
same,RLU,mouse Tas2r105; Time 76.781 s,172.509 RLU
same,RLU,mouse Tas2r105; Time 78.781 s,142.279 RLU
same,RLU,mouse Tas2r105; Time 80.781 s,151.243 RLU
same,RLU,mouse Tas2r105; Time 82.781 s,167.63 RLU
same,RLU,mouse Tas2r105; Time 84.781 s,195.966 RLU
same,RLU,mouse Tas2r105; Time 86.781 s,203.204 RLU
same,RLU,mouse Tas2r105; Time 88.781 s,204.712 RLU
same,RLU,mouse Tas2r105; Time 90.781 s,215.59 RLU
same,RLU,mouse Tas2r105; Time 92.781 s,209.022 RLU
same,RLU,mouse Tas2r105; Time 94.781 s,228.864 RLU
same,RLU,mouse Tas2r105; Time 96.781 s,184.288 RLU
same,RLU,mouse Tas2r105; Time 98.781 s,227.541 RLU
same,RLU,mouse Tas2r105; Time 100.781 s,248.863 RLU
same,RLU,mouse Tas2r105; Time 102.781 s,222.595 RLU
same,RLU,mouse Tas2r105; Time 104.781 s,217.502 RLU
same,RLU,mouse Tas2r105; Time 106.781 s,225.971 RLU
same,RLU,mouse Tas2r105; Time 108.781 s,244.356 RLU
same,RLU,mouse Tas2r105; Time 110.781 s,261.979 RLU
same,RLU,mouse Tas2r105; Time 112.781 s,241.216 RLU
same,RLU,mouse Tas2r105; Time 114.781 s,243.367 RLU
same,RLU,mouse Tas2r105; Time 116.781 s,246.887 RLU
same,RLU,mouse Tas2r105; Time 118.781 s,257.566 RLU
same,RLU,mouse Tas2r105; Time 120.781 s,260.092 RLU
same,RLU,mouse Tas2r105; Time 122.781 s,284.505 RLU
same,RLU,mouse Tas2r105; Time 124.781 s,270.165 RLU
same,RLU,mouse Tas2r105; Time 126.781 s,278.83 RLU
same,RLU,mouse Tas2r105; Time 128.781 s,309.382 RLU
same,RLU,mouse Tas2r105; Time 130.781 s,309.382 RLU
same,RLU,mouse Tas2r105; Time 132.781 s,310.252 RLU
same,RLU,mouse Tas2r105; Time 134.781 s,282.326 RLU
same,RLU,mouse Tas2r105; Time 136.781 s,279.582 RLU
same,RLU,mouse Tas2r105; Time 137.562 s,296.261 RLU
same,RLU,mouse Tas2r105; Time 143.562 s,310.291 RLU
same,RLU,mouse Tas2r105; Time 149.562 s,291.585 RLU
same,RLU,mouse Tas2r105; Time 155.562 s,301.792 RLU
same,RLU,mouse Tas2r105; Time 161.562 s,299.079 RLU
same,RLU,mouse Tas2r105; Time 167.562 s,303.398 RLU
same,RLU,mouse Tas2r105; Time 173.562 s,315.378 RLU
same,RLU,mouse Tas2r105; Time 179.562 s,314.187 RLU
same,RLU,mouse Tas2r105; Time 185.562 s,308.746 RLU
same,RLU,mouse Tas2r105; Time 191.562 s,287.017 RLU
same,RLU,mouse Tas2r105; Time 197.562 s,315.242 RLU
same,RLU,mouse Tas2r105; Time 203.562 s,299.639 RLU
same,RLU,mouse Tas2r105; Time 209.562 s,295.067 RLU
same,RLU,mouse Tas2r105; Time 215.562 s,316.647 RLU
same,RLU,mouse Tas2r105; Time 221.562 s,272.857 RLU
same,RLU,mouse Tas2r105; Time 227.562 s,314.132 RLU
same,RLU,mouse Tas2r105; Time 233.562 s,269.771 RLU
same,RLU,mouse Tas2r105; Time 239.562 s,270.901 RLU
same,RLU,mouse Tas2r105; Time 245.562 s,241.175 RLU
same,RLU,mouse Tas2r105; Time 293.562 s,236.399 RLU
same,RLU,mouse Tas2r105; Time 299.562 s,209.696 RLU
same,RLU,mouse Tas2r105; Time 305.562 s,212.529 RLU
same,RLU,mouse Tas2r105; Time 311.562 s,180.625 RLU
same,RLU,mouse Tas2r105; Time 317.562 s,178.726 RLU
same,RLU,mouse Tas2r105; Time 323.562 s,162.84 RLU
same,RLU,mouse Tas2r105; Time 329.562 s,185.237 RLU
same,RLU,mouse Tas2r105; Time 335.562 s,178.412 RLU
same,RLU,mouse Tas2r105; Time 341.562 s,163.583 RLU
same,RLU,mouse Tas2r105; Time 347.562 s,148.887 RLU
same,RLU,mouse Tas2r105; Time 353.562 s,153.613 RLU
same,RLU,mouse Tas2r105; Time 359.562 s,155.912 RLU
same,Activation threshold concentration Tas2r105,mouse Tas2r105; p < 0.01 vs empty vector,3 µM
"C[C@H](CCC(=O)NCCS(=O)(=O)O)[C@H]1CC[C@H]2[C@@H]3[C@H](O)C[C@@H]4C[C@H](O)CC[C@]4(C)[C@H]3C[C@H](O)[C@]12C [Taurocholic Acid, taurocholic acid]",Receptor response Tas2r105,mouse Tas2r105; screening,lack of taurocholic acid responsiveness
"C[C@H](CCC(=O)NCCS(=O)(=O)O)[C@H]1CC[C@H]2[C@@H]3CC[C@@H]4C[C@H](O)CC[C@]4(C)[C@H]3CC[C@]12C [Taurolithocholic Acid, taurolithocholic acid]",Activation of T2R02,[1],activate

# — article PMC10247784, “Physiological activation of human and mouse bitter taste receptors by bile acids” (Communications Biology, 2023)
